Measurements reported in BindingDB's records for patent US10626113 (Columbia University, 2020).
pIC50: −log10 of the molar value.

Biological target: cGMP-specific 3',5'-cyclic phosphodiesterase (Homo sapiens, UniProt O76074)
Test: PDE5 Inhibition Assay
Method: Test compounds were supplied as liquid solutions of 10 mM concentration in DMSO. Sildenafil, used as a standard was dissolved in DMSO. […] 0.1 ng of enzyme was used per reaction, and the substrate was 100 nM FAM-cGMP.Assay conditions: A series of dilutions of the test compounds were prepared with 10% DMSO in assay buffer and 5 μl of the dilution was added to a 50 μl reaction so that the final concentration of DMSO is 1% in all of reactions. The enzymatic reactions were conducted at room temperature for 60 minutes in a 50 μl mixture containing PDE assay buffer, 100 nM FAM-cAMP or 100 nM FAM-cGMP, a PDE enzyme, and the test compound. After the enzymatic reaction, 100 μl of a binding solution (1:100 dilution of the binding agent with the binding agent diluent) was added to each reaction and the reaction was performed at room temperature for 60 minutes. […] Fluorescence intensity is converted to fluorescence polarization using the Tecan Magellan6 software. The fluorescence polarization data were analyzed using the computer software, Graphpad Prism. The fluorescence polarization (FPt) in absence of the compound in each data set was defined as 100% activity. In the absence of PDE and the compound, the value of fluorescent polarization (FPb) in each data set was defined as 0% activity. The percent activity in the presence of the compound was calculated according to the following equation: % activity=(FP−FPb)/(FPt−FPb)×100%, where FP=the fluorescence polarization in the presence of the compound.

pIC50 | SMILES
6.23 | COc1ccc(Nc2c3c(nc4ccc(C#N)cc24)CCN(C(C)=O)C3)cc1Cl [US10899756, Compound S]
6.37 | COc1cc(Nc2c3c(nc4ccc(C#N)cc24)CCN(C(C)=O)C3)ccc1Cl [US10899756, Compound T]
7.57 | COc1ccc(C(C)Nc2c3c(nc4ccc(C#N)cc24)CCN(C(C)=O)C3)cc1Cl (centres undefined) [US10899756, Compound V]

SMILES | pIC50
COc1ccc(CCNc2c3c(nc4ccc(C#N)cc24)CCN(C(C)=O)C3)cc1Cl [US10899756, Compound W] | 7.97
